Paper PMC11594329, “Development of LAT1-Selective Nuclear Medicine Therapeutics Using Astatine-211” (International Journal of Molecular Sciences, 2024)

How the values were obtained:
LAT1-Tet/HEK293 cells = assay: Uptake versus LAT1 expression level (Dox-induced) in LAT1-Tet/HEK293 cells; assay type: cell-based; settings: collection 30 min after treatment
Method: Each cell line was seeded in 24 wells at 1 × 10^5 cells/mL and allowed to become sub-confluent on the day of the experiment. Cells were washed with PBS (-) (Fujifilm Wako Pure Chemical, Osaka, Japan) prior to the addition of the compound, which was then replaced with uptake buffer. After treating the cells with the same dose, they were collected at predetermined time points. The cell dose was measured using a γ-counter (Wizard^2 2480; PerkinElmer, Waltham, MA, USA), and the protein content of the sample was determined. Protein content was measured using the BCA method, and the dose was corrected using the protein content (Protein Assay BCA kit, Fujifilm Wako Pure Chemical).
Figure 2 Comparison of uptake between the labeled compounds. (A) Relation between uptake ratio and LAT1 expression level. Uptake ratios were compared between LAT1-Tet/HEK293 cells. The Y-axis represents the uptake ratio, and the X-axis is concentration of Doxycycline (Dox) (TaKaRa Bio, Shiga, Japan). The collection time was 30 min after treatment. The expression of LAT1 increased with increasing amounts of Dox. (B) Comparison of uptake in PANC-1 cell line. The collection times were 0.5, 1, 5 and 10 min after treatment.
The PANC-1 cell line was obtained from the RIKEN Cell Bank and maintained in RPMI 1640 medium (Fujifilm Wako Pure Chemical, Osaka, Japan) supplemented with 10% inactivated fetal bovine serum (Thermo Fisher Scientific, Waltham, MA, USA). Mock/HEK293, LAT1/HEK293, and LAT2/HEK203 cells were kindly provided by Dr. Kanai. Cell lines controlling LAT1 expression were constructed using the Tet-on system. HEK293 cells were obtained from the RIKEN Cell Bank and maintained in E-MEM (Fujifilm Wako Pure Chemical) supplemented with 10% inactivated fetal bovine serum (Thermo Fisher Scientific) and non-essential amino acids (Fujifilm Wako Pure Chemical). The expression vectors were purchased from VectorBuilder, Inc. (Kanagawa, Japan). The purified viral particle genes were transfected into HEK293 cells. Drug selection and cloning of the cell line (Tet-LAT1/HEK293) were performed. […]

[1] = Tissue distribution in ICR mice (normal animals); assay type: in vivo
Text: ICR mice (male, 5 weeks old) were purchased from Japan SLC (Shizuoka, Japan) and acclimated for one week prior to use. The doses in the distribution experiments were as follows: ^211At-AAMT-O-Me-L (0.407 ± 0.005 MBq/mouse, 31.64 ± 0.76 g, n = 6), ^211At-AAMT-O-Me-D (0.351 ± 0.004 MBq/mouse, 31.44 ± 0.94 g, n = 6), ^211At-AAMT-O-Et-L (0.685 ± 0.010 MBq/mouse, 24.14 ± 3.31 g, n = 6), ^211At-AAMT-O-Pr-L (1.09 ± 0.06 MBq/mouse, 26.33 ± 0.39 g, n = 6)

PANC-1 tumor model = assay: Tissue distribution in nude mice (PANC-1 tumor model); assay type: in vivo, BALB/c nu/nu mice; settings: nude mice (PANC-1 tumor model)
Method: BALB/c nu/nu mice (male, 5 weeks old) were purchased from Japan SLC (Shizuoka, Japan) and subcutaneously transplanted at a density of 1 × 10^7 cells/mouse. PANC-1 cells that reached the logarithmic growth phase were transplanted subcutaneously by mixing a 1 × 10^8 cells/mL cell suspension with an equivalent volume of Matrigel (Corning, Corning, NY, USA) to obtain 1 × 10^7 cells per mouse. Experiments were performed after the size of the transplanted tumor had exceeded 50 mm^3. The doses in the distribution experiments were as follows: ^211At-AAMT-OH-L (0.501 ± 0.011 MBq/mouse, 19.91 ± 0.59 g, n = 3) and ^211At-AAMT-O-Me-L (0.384 ± 0.003 MBq/mouse, 19.18 ± 0.38 g, n = 6 for Table 3), ^211At-AAMT-O-Me-L (158.10 ± 2.94 kBq/mouse, 19.27 ± 0.64 g, n = 6) and ^211At-AAMT-O-Me-D (135.08 ± 2.35 kBq/mouse, 18.64 ± 0.97 g, n = 6), ^211At-AAMT-O-Et-L (0.682 ± 0.011 MBq/mouse, 20.25 ± 1.41 g, n = 6), ^211At-AAMT-O-Pr-L (0.927 ± 0.020 MBq/mouse, 21.74 ± 0.37 g, n = 6).

CCCOc1ccc(C[C@](C)(N)C(=O)O)cc1[211At] [^211At-AAMT-O-Pr-L]
Uptake ratio versus LAT1 expression (doxycycline concentration) (LAT1-Tet/HEK293 cells): lower cellular uptake when LAT1 expression increased
Tissue distribution, Bladder ([1]; 1 h after injection): 20.82 ± 5.36 %ID/g
Tissue distribution, Blood ([1]; 1 h after injection): 1.77 ± 0.15 %ID/g
Tissue distribution, Bone ([1]; 1 h after injection): 1.79 ± 0.12 %ID/g
Tissue distribution, Brain ([1]; 1 h after injection): 0.25 ± 0.02 %ID/g
Tissue distribution, Cecum ([1]; 1 h after injection): 1.49 ± 0.14 %ID/g
Tissue distribution, Colon ([1]; 1 h after injection): 1.35 ± 0.07 %ID/g
Tissue distribution, Heart ([1]; 1 h after injection): 3.14 ± 0.20 %ID/g
Tissue distribution, Kidney ([1]; 1 h after injection): 2.25 ± 0.19 %ID/g
Tissue distribution, Liver ([1]; 1 h after injection): 1.18 ± 0.08 %ID/g
Tissue distribution, Lung ([1]; 1 h after injection): 6.54 ± 0.34 %ID/g
Tissue distribution, Pancreas ([1]; 1 h after injection): 2.55 ± 0.60 %ID/g
Tissue distribution, Salivary glands ([1]; 1 h after injection): 14.23 ± 3.16 %ID/g
Tissue distribution, Small intestine ([1]; 1 h after injection): 1.83 ± 0.23 %ID/g
Tissue distribution, Spleen ([1]; 1 h after injection): 4.11 ± 0.11 %ID/g
Tissue distribution, Stomach ([1]; 1 h after injection): 13.55 ± 2.66 %ID/g
Tissue distribution, Testis ([1]; 1 h after injection): 3.66 ± 0.14 %ID/g
Tissue distribution, Thymus ([1]; 1 h after injection): 2.03 ± 0.28 %ID/g
Tissue distribution, Thyroid ([1]; 1 h after injection): 23.08 ± 3.56 %ID/g
Tissue distribution, Bladder ([1]; 3 h after injection): 5.37 ± 0.73 %ID/g
Tissue distribution, Blood ([1]; 3 h after injection): 1.30 ± 0.12 %ID/g
Tissue distribution, Bone ([1]; 3 h after injection): 1.32 ± 0.12 %ID/g
Tissue distribution, Brain ([1]; 3 h after injection): 0.16 ± 0.01 %ID/g
Tissue distribution, Cecum ([1]; 3 h after injection): 1.13 ± 0.25 %ID/g
Tissue distribution, Colon ([1]; 3 h after injection): 1.29 ± 0.25 %ID/g
Tissue distribution, Heart ([1]; 3 h after injection): 2.16 ± 0.18 %ID/g
Tissue distribution, Kidney ([1]; 3 h after injection): 1.93 ± 0.29 %ID/g
Tissue distribution, Liver ([1]; 3 h after injection): 0.82 ± 0.14 %ID/g
Tissue distribution, Lung ([1]; 3 h after injection): 5.09 ± 0.43 %ID/g
Tissue distribution, Pancreas ([1]; 3 h after injection): 1.60 ± 0.31 %ID/g
Tissue distribution, Salivary glands ([1]; 3 h after injection): 11.39 ± 0.33 %ID/g
Tissue distribution, Small intestine ([1]; 3 h after injection): 1.92 ± 0.12 %ID/g
Tissue distribution, Spleen ([1]; 3 h after injection): 3.56 ± 0.54 %ID/g
Tissue distribution, Stomach ([1]; 3 h after injection): 32.05 ± 3.31 %ID/g
Tissue distribution, Testis ([1]; 3 h after injection): 2.34 ± 0.42 %ID/g
Tissue distribution, Thymus ([1]; 3 h after injection): 1.76 ± 0.25 %ID/g
Tissue distribution, Thyroid ([1]; 3 h after injection): 24.75 ± 3.77 %ID/g
Tissue distribution, Bladder (PANC-1 tumor model; 10 min after injection): 18.24 ± 4.50 %ID/g
Tissue distribution, Blood (PANC-1 tumor model; 10 min after injection): 4.33 ± 0.45 %ID/g
Tissue distribution, Bone (PANC-1 tumor model; 10 min after injection): 3.50 ± 0.13 %ID/g
Tissue distribution, Brain (PANC-1 tumor model; 10 min after injection): 1.01 ± 0.04 %ID/g
Tissue distribution, Cecum (PANC-1 tumor model; 10 min after injection): 3.35 ± 0.30 %ID/g
Tissue distribution, Colon (PANC-1 tumor model; 10 min after injection): 4.56 ± 0.31 %ID/g
Tissue distribution, Heart (PANC-1 tumor model; 10 min after injection): 9.66 ± 0.87 %ID/g
Tissue distribution, Kidney (PANC-1 tumor model; 10 min after injection): 10.29 ± 0.97 %ID/g
Tissue distribution, Liver (PANC-1 tumor model; 10 min after injection): 3.67 ± 0.41 %ID/g
Tissue distribution, Lung (PANC-1 tumor model; 10 min after injection): 18.16 ± 1.88 %ID/g
Tissue distribution, Pancreas (PANC-1 tumor model; 10 min after injection): 10.85 ± 1.53 %ID/g
Tissue distribution, Salivary glands (PANC-1 tumor model; 10 min after injection): 11.89 ± 0.06 %ID/g
Tissue distribution, Small intestine (PANC-1 tumor model; 10 min after injection): 6.80 ± 0.63 %ID/g
Tissue distribution, Spleen (PANC-1 tumor model; 10 min after injection): 11.84 ± 1.91 %ID/g
Tissue distribution, Stomach (PANC-1 tumor model; 10 min after injection): 7.31 ± 0.30 %ID/g
Tissue distribution, Testis (PANC-1 tumor model; 10 min after injection): 3.54 ± 0.28 %ID/g
Tissue distribution, Thyroid (PANC-1 tumor model; 10 min after injection): 9.74 ± 0.39 %ID/g
Tissue distribution, Tumor (PANC-1 tumor model; 10 min after injection): 5.91 ± 0.27 %ID/g
Tissue distribution, Bladder (PANC-1 tumor model; 1 h after injection): 18.00 ± 0.97 %ID/g
Tissue distribution, Blood (PANC-1 tumor model; 1 h after injection): 3.09 ± 0.25 %ID/g
Tissue distribution, Bone (PANC-1 tumor model; 1 h after injection): 2.03 ± 0.45 %ID/g
Tissue distribution, Brain (PANC-1 tumor model; 1 h after injection): 0.79 ± 0.13 %ID/g
Tissue distribution, Cecum (PANC-1 tumor model; 1 h after injection): 3.07 ± 1.06 %ID/g
Tissue distribution, Colon (PANC-1 tumor model; 1 h after injection): 3.27 ± 0.46 %ID/g
Tissue distribution, Heart (PANC-1 tumor model; 1 h after injection): 5.39 ± 1.06 %ID/g
Tissue distribution, Kidney (PANC-1 tumor model; 1 h after injection): 5.76 ± 0.67 %ID/g
Tissue distribution, Liver (PANC-1 tumor model; 1 h after injection): 2.41 ± 0.24 %ID/g
Tissue distribution, Lung (PANC-1 tumor model; 1 h after injection): 14.15 ± 1.78 %ID/g
Tissue distribution, Pancreas (PANC-1 tumor model; 1 h after injection): 3.54 ± 0.49 %ID/g
Tissue distribution, Salivary glands (PANC-1 tumor model; 1 h after injection): 20.98 ± 3.26 %ID/g
Tissue distribution, Small intestine (PANC-1 tumor model; 1 h after injection): 5.08 ± 0.53 %ID/g
Tissue distribution, Spleen (PANC-1 tumor model; 1 h after injection): 17.42 ± 6.48 %ID/g
Tissue distribution, Testis (PANC-1 tumor model; 1 h after injection): 3.56 ± 0.41 %ID/g
Tissue distribution, Thyroid (PANC-1 tumor model; 1 h after injection): 16.44 ± 1.16 %ID/g
Tissue distribution, Tumor (PANC-1 tumor model; 1 h after injection): 9.45 ± 0.82 %ID/g
